Assay results published in patent US8003734B2, “Biologically tolerated low molecular weight polyethylenimines” (priority 1997, dated 2011).

Tests used:
L929 mouse fibroblasts = experiment: Cytotoxicity study, MTT assay; type: cell-based
Protocol: L929 mouse fibroblasts were cultured under the standard conditions with which the skilled person is familiar. These cells were sown in 96-well cell culture plates at a density of 8000 cells/well and cultured for 24 h before they were used for toxicity experiments.
The toxicity of the polymers was determined on L929 mouse fibroblasts using the MTT assay in accordance with the method of Mosmann et al. [Mosmann, J. Immunol. Methods 65: 55-63 (1983)]. The polymer dilution series were prepared in DMEM containing 10% FCS and 2 mM glutamine and sterilized by filtration (0.2 μm, Schleicher & Schuell, Dassel). The pH and osmolarity of the solutions were corrected if required. After a pre-incubation of 24 h, the cells were treated with the polymer solutions and incubated for 1, 3, 12 and 24 h. The viability of the cells was quantified UV-photometrically by measuring the formazan concentration.
In a second series of experiments, the cells were generally only treated with the polymers for 1 h, after which they were washed and then cultured for a further 3, 12 and 24 h in PEI-free cell culture medium. The evaluation was carried out as described above.
The toxicity of the PEIs was determined in vitro on L929 mouse fibroblasts, which various standard organizations recommend as the standard cell culture model for determining the cytotoxicity and biocompatibility of polymers. […]

[1] = tested on: pig brain capillary endothelial cells; experiment: In-vitro transfection of primary cultures, β-galactosidase reporter gene; type: cell-based
Protocol: The cells, which were incubated at 37° C., 95% relative atmospheric humidity and 5% CO2, were passaged twice a week, after having reached confluence, using trypsin/EGTA solution (2.5% stock solution of trypsin, 50 mM solution of ethylene glycol tetraacetic acid, PBS, pH 7.4, in a ratio of 1:1:8). Since the cells detached from the substratum in cell clusters rather than individually, a ⅛ passage was carried out in each case. Cerebral capillary endothelial cells were isolated and cultured in accordance with the method of Bowman et al. and Mischek et al. [Mischek et al., Cell. Tiss. Res. 256: 221-226 (1989)]. […]
The ECV 304 cells and 3T3 mouse fibroblasts, which were sown in 3 cm^2 Petri dishes, and the primary endothelial cells, which were sown in 6-well culture plates, were washed with PBS, pH 7.4, immediately before the experiments and provided with new, serum-supplemented medium. […] The cells were subsequently incubated for 60 hours and the luciferase or β-galactosidase activity was determined in analogy with the manufacturer's instructions. […]
The transfection efficiency of the PEI complexes was determined both with cell lines (3T3 mouse fibroblasts and the human endothelial cell line ECV304) and with primary cultures (pig brain capillary endothelial cells). […]

## polyethylenimine [LMW PEI]
L929 mouse fibroblasts
  cytotoxicity for fibroblasts as compared with that of HMW PEI: markedly reduced
[1]
  in-vitro maximum tolerable, noncytotoxic dose (MTD) of the complexes: 90 μg/10 μg of DNA
